According to patent US11193941B2, “Method for evaluating condition of skin dryness” (KAO CORPORATION, priority 2014, dated 2021):

Test system: AGR2 mRNA
Experiment: Promoting action of humectant on AGR2 gene expression level in normal human epidermal cells (Real-Time PCR)
Assay type: cell-based
Settings: NHEK, 72 hour culture; for AGR2 expression compared to that in the control: result in words; for AGR2 expression level (relative value): normalized with RPLP0, control (99.5% EtOH solvent) = 1, n=2
Method: The normal human epidermal cells (NHEK) were cultured under conditions of 37° C. and 5% CO2 using EpiLife (Registered Trademark) (purchased from Kurabo). The cells were seeded in a 12 well plate at 1×10^5 cells and cultured for 48 hours, and the medium was then exchanged with a serum-free medium. Further, vitamin D3, which is a known agent for ameliorating dry skin, (99.5% ethanol solution, final concentration 1 nM or 10 nM) (Nutrients, 4(9):1213-8, 2012), eucalyptus extract (50% ethanol solution, final concentration 0.001%) (J Cosmet Dermatol, 12(1):3-11, 2013), macrocarpal, which is a major physiologically active substance of eucalyptus extract (50% ethanol solution, final concentration 10 nM) (Int J Cosmet Sci, 34(1):17-22, 2012), or 99.5% ethanol or 50% ethanol as a control was added to the medium. After 72 hour culture, total RNA was extracted from cells using RNeasy (Registered Trademark) Mini Kit (QIAGEN). The concentration of total RNA was measured and a reverse transcription reaction was carried out using a constant amount of total RNA. High capacity RNA-to-cDNA kit (Applied Biosystems) was used for the reverse transcription reaction. The expression of AGR2 mRNA was quantitatively determined from the obtained cDNA by Real-Time PCR. Taqman (Registered Trademark) Probe (AGR2: Hs00180702_m1, Applied Biosystems) was used for quantitative determination, and PRISM 7500 (Applied Biosystems) was used for detection and quantitative determination. PCR was carried out in a 20 μL reaction system and the amplification conditions were a denaturation reaction at 95° C. for 15 seconds, annealing at 60° C. for a minute and an elongation reaction. The mRNA expression level was normalized with the expression level of RPLP0 (Hs99999902_m1, Applied Biosystems) and shown as a relative value in the case where the mean expression level of AGR2 in a control (only 99.5% EtOH solvent) was considered as 1.

Compound | AGR2 expression compared to that in the control | AGR2 expression level (relative value) (final concentration 1 nM) | AGR2 expression level (relative value) (final concentration 10 nM)
C=C1CC[C@H](O)C/C1=C/C=C1\CCC[C@]2(C)[C@@H]([C@H](C)CCCC(C)C)CC[C@@H]12 [Vitamin D3, vitamin D3] | increased | 1.05 | 1.17
macrocarpal | increased |  | 1.17
